Data: paper PMC9841523 (Journal of Medicinal Chemistry, 2022)

How the values were obtained:
NDR1, NDR2 = assay: KiNativ kinase panel; assay type: cell-based, human; details: 1 μM; MCF-7 Cells; Activation Loop; LSDFGLCTGLKK
EphB2 = target: T1, EphB2 (Homo sapiens, UniProt P29323); assay: KiNativ kinase panel; assay type: cell-based; details: 1 μM; MCF-7 Cells; Activation Loop; FLEDDTSDPTYTSALGGKIPIR
T1 construct: MCF7 cells were exposed to; endogenous in cells; host or cells: MCF7

Wnk1, Wnk2 = assay: KiNativ kinase panel; assay type: cell-based, human; details: 1 μM; MCF-7 Cells; ATP Loop; GSFKTVYK
ULK1 = target: T2, ULK1 (Homo sapiens, UniProt O75385); assay: KiNativ kinase panel; assay type: cell-based; details: 1 μM; MCF-7 Cells; Lys2; DLKPQNILLSNPAGR
T2 construct: Briefly, MCF7 cells were exposed to; endogenous in cells; host or cells: MCF7
T2 sequence (O75385 whole entry): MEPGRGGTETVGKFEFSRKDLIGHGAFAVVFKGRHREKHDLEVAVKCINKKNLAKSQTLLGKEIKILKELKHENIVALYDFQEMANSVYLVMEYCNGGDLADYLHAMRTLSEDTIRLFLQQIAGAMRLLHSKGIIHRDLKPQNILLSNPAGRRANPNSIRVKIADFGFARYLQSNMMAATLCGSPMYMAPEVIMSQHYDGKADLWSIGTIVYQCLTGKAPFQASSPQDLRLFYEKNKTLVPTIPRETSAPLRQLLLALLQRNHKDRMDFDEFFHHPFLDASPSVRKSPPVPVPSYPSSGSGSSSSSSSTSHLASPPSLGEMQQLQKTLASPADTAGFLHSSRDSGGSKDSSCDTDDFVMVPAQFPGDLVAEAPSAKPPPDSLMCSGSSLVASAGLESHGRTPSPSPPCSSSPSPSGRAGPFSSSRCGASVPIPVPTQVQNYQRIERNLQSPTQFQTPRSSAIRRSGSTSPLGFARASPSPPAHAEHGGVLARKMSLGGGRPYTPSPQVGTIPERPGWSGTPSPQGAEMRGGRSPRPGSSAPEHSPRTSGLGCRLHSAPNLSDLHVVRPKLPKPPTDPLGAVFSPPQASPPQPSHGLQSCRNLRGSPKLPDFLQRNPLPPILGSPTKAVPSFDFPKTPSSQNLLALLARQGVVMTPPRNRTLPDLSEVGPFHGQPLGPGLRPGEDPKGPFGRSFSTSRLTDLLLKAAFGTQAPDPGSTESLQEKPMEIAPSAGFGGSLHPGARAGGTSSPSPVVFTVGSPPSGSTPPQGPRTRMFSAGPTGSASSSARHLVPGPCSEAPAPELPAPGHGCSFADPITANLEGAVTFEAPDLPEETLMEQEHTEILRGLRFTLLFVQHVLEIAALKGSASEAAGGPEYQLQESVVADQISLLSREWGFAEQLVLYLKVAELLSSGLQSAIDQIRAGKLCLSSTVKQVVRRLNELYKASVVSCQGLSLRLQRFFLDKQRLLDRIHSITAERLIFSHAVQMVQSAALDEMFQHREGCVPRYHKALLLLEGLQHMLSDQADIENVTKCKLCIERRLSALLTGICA

MAP2K7 = target: T3, MAP2K7 (Homo sapiens, UniProt O14733); assay: KiNativ kinase panel; assay type: cell-based; details: 1 μM; MCF-7 Cells; Lys2; DVKPSNILLDER
T3 construct: MCF7 cells were exposed to; endogenous in cells; host or cells: MCF7
T3 sequence (O14733 whole entry): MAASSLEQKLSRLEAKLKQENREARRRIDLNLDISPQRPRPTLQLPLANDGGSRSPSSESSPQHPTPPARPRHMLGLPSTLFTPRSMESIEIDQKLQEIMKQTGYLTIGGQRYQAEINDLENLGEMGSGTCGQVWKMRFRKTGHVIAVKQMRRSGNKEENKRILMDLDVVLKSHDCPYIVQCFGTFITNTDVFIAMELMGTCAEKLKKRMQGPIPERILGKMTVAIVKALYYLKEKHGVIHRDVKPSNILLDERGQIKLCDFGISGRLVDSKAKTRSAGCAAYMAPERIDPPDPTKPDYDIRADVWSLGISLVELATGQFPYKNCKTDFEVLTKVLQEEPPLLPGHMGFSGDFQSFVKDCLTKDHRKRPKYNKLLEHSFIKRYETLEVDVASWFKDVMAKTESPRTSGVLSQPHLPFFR

hERG ion channel = hERG ion channel (Homo sapiens, UniProt Q12809); assay: in vitro hERG inhibition; details: for inhibition of the hERG ion channel: 10 µM
hERG ion channel, sequence (Q12809 whole entry): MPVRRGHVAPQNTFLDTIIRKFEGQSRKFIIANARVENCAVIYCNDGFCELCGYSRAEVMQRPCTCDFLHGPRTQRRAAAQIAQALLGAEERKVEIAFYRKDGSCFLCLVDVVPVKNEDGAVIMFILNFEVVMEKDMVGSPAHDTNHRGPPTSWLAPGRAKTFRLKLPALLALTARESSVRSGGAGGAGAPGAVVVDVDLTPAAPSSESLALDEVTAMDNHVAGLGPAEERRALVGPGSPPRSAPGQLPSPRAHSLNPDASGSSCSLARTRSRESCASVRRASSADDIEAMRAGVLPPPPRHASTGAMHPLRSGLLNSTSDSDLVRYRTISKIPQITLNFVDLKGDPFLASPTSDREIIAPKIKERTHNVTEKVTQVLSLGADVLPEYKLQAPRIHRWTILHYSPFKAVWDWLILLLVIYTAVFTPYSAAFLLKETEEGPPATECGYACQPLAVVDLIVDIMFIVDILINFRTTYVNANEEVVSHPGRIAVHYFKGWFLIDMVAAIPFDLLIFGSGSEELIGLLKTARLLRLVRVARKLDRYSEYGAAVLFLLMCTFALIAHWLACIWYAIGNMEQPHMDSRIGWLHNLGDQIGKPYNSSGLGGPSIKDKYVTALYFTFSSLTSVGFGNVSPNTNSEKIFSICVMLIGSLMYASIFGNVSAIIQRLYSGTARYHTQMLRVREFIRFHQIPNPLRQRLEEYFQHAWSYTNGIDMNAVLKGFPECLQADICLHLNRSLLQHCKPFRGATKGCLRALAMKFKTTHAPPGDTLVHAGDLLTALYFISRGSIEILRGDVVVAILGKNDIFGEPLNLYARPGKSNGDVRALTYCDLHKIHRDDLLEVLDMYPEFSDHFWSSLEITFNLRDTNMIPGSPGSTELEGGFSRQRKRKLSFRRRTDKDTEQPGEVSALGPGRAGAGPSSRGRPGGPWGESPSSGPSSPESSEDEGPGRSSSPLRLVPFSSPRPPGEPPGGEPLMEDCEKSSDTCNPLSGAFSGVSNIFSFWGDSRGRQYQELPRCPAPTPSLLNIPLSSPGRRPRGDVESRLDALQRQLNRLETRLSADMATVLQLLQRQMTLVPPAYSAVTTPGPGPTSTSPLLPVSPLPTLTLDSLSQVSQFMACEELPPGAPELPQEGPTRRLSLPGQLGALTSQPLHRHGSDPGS

TAO1, TAO3 = assay: KiNativ kinase panel; assay type: cell-based, human; details: 1 μM, MCF-7 Cells, Lys2
MAP3K2, MAP3K3 = assay: KiNativ kinase panel; assay type: cell-based, human; details: 1 μM; MCF-7 Cells; Lys2; DIKGANILR
CDK11, CDK8 = assay: KiNativ kinase panel; assay type: cell-based, human; details: 1 μM, MCF-7 Cells, Lys2
MST1 = target: T4, MST1 (Homo sapiens, UniProt Q13043); assay: KiNativ kinase panel; assay type: cell-based; details: 1 μM; MCF-7 Cells; Lys1; ETGQIVAIKQVPVESDLQEIIK
T4 construct: purchased ActivX Biosciences (KiNativ)
T4 sequence (Q13043 whole entry): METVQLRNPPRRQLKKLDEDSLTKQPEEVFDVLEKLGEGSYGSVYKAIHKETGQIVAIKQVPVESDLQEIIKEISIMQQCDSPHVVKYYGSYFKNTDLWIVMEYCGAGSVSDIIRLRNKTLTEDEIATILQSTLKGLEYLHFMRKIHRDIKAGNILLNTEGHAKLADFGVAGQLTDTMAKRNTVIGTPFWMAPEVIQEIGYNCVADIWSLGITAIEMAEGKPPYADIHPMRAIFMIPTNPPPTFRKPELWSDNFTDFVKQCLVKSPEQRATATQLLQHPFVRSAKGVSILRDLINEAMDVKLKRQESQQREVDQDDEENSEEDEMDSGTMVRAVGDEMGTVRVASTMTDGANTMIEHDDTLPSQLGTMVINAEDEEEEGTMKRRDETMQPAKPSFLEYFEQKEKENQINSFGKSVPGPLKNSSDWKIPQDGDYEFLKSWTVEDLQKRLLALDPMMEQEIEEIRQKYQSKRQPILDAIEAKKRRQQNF

AKT2, AKT3 = assay: KiNativ kinase panel; assay type: cell-based, human; details: 1 μM, MCF-7 Cells, ATP Loop
MASTL = target: T5, MASTL (Homo sapiens, UniProt Q96GX5); assay: KiNativ kinase panel; assay type: cell-based; details: 1 μM, MCF-7 Cells
T5 construct: purchased ActivX Biosciences (KiNativ)
T5 sequence (Q96GX5 1-879): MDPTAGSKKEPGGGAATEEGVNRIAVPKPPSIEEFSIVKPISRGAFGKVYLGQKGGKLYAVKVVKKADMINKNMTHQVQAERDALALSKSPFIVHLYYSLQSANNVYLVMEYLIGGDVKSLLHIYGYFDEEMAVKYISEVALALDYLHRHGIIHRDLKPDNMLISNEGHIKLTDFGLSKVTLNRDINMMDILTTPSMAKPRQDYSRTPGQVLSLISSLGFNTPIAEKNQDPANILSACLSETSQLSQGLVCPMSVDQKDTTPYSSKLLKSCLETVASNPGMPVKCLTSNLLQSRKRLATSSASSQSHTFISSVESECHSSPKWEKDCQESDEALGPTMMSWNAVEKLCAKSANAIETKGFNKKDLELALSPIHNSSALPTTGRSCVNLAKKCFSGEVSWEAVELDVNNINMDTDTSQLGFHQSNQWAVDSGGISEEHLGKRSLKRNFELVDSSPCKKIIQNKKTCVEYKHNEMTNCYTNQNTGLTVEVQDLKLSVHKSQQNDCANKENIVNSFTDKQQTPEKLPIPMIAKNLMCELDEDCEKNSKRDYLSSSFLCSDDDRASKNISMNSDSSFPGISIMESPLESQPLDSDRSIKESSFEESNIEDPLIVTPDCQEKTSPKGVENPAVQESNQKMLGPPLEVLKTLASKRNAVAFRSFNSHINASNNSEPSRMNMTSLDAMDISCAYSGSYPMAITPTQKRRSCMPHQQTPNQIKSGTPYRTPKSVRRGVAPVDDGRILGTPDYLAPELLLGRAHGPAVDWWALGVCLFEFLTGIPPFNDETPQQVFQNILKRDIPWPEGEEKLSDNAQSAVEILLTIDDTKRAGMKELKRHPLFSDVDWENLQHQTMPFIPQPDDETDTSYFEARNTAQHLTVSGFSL

JAK1 domain1 = target: T6, JAK1 domain1 (Homo sapiens, UniProt P23458); assay: KiNativ kinase panel; assay type: cell-based; details: 1 μM; MCF-7 Cells; Activation Loop; QLASALSYLEDKDLVHGNVCTKNLLLAR
T6 construct: MCF7 cells were exposed to; endogenous in cells; host or cells: MCF7
T6 sequence (P23458 whole entry, the tested form may be a part): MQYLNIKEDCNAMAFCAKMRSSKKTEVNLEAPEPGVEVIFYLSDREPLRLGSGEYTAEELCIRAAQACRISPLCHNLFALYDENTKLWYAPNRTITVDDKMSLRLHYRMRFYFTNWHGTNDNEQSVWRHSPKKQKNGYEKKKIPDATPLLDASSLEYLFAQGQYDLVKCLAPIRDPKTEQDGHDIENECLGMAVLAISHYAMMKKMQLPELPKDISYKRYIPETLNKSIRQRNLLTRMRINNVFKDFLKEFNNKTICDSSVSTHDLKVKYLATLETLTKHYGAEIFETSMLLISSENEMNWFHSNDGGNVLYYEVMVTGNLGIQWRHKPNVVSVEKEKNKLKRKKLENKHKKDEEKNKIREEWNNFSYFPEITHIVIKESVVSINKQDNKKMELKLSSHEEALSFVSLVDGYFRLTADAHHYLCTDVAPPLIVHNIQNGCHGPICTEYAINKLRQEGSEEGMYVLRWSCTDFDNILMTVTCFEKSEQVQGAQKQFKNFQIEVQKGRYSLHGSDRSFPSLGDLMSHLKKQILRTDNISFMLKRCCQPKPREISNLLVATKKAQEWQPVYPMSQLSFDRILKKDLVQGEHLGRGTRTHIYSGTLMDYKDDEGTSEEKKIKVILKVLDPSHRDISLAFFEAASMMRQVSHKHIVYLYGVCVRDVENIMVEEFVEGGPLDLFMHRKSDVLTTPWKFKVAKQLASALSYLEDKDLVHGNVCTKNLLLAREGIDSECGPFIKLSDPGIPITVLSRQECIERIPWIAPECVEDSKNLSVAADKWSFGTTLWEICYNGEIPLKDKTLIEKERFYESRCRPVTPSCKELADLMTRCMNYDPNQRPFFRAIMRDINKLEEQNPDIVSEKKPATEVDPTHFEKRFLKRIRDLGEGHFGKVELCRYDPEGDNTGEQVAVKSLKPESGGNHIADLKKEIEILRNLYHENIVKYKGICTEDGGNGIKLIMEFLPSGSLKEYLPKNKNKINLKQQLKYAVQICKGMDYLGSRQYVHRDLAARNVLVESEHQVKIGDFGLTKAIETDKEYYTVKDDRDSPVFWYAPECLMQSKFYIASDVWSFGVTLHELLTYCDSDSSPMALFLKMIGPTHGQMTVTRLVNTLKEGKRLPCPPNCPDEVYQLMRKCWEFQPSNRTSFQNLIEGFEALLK

[1] = test system: MCF-7 (PIK3CA^E545K) cell line-derived xenograft; assay: 28-day study in the MCF-7 CDX model; details: for tumor volume: MCF-7 CDX, once weekly ip, 28-day study, most significant at 3 or 10 mg/kg; for tolerability (body weight): up to 10 mg/kg ip once weekly
Experimental: Formulation containing transcutol/solutol HS15/H 2O (5/5/90, %w/w/v) was used, with a dose volume at 5 mL/kg.
Methods for xenograft studies.
MCF-7 xenograft studies. Female Balb/c nude mice (Shanghai Lingchang Biotechnology), 6–8 weeks of age, were inoculated subcutaneously in the right flank with MCF-7 (ECACC-
Three days prior to inoculation, mice were fed with drinking water containing β-estradiol (40 μg/mL). When mean tumor volume reached between 200–400 mm 3, mice were randomized into treatment groups (n = 12/group) for efficacy study, and tumor volume was measured twice weekly by caliper measurements for the duration of the study.
compounds were administered by ip injections at indicated doses, once weekly.

PKCa, PKCg = assay: KiNativ kinase panel; assay type: cell-based, human; details: 1 μM, MCF-7 Cells, Other
MER, TYRO3 = assay: KiNativ kinase panel; assay type: cell-based, human; details: 1 μM; MCF-7 Cells; Activation Loop; KIYSGDYYR
[2] = target: T7, δ (DOP) (h) (agonist radioligand) (Homo sapiens, UniProt P41143); assay: Eurofins Safety Screen 44; assay type: binding; details: read-out: % Inhibition of Control Values
T7 construct: purchased ActivX Biosciences (KiNativ)
T7 sequence (P41143 whole entry): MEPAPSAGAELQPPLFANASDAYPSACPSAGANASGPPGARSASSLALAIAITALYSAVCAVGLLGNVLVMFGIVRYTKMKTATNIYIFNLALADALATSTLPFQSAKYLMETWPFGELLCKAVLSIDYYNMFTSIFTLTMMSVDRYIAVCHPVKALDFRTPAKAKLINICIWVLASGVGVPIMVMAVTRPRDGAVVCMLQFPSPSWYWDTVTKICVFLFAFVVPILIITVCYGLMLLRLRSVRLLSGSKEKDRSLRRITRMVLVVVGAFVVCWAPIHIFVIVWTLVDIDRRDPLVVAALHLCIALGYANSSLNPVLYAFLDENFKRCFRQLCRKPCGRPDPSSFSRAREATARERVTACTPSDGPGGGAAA

[3] = target: T8, 5-HT2B(h) (agonist radioligand) (Homo sapiens, UniProt P41595); assay: Eurofins Safety Screen 44; assay type: binding; details: read-out: % Inhibition of Control Values
T8 construct: purchased ActivX Biosciences (KiNativ)

[4] = target: T9, M3(h) (antagonist radioligand) (Homo sapiens, UniProt P20309); assay: Eurofins Safety Screen 44; assay type: binding; details: read-out: % Inhibition of Control Values
T9 construct: purchased ActivX Biosciences (KiNativ)

[5] = target: T10, 5-HT1B (h) (antagonist radioligand) (Homo sapiens, UniProt P28222); assay: Eurofins Safety Screen 44; assay type: binding; details: read-out: % Inhibition of Control Values
T10 construct: purchased ActivX Biosciences (KiNativ)
T10 sequence (P28222 whole entry): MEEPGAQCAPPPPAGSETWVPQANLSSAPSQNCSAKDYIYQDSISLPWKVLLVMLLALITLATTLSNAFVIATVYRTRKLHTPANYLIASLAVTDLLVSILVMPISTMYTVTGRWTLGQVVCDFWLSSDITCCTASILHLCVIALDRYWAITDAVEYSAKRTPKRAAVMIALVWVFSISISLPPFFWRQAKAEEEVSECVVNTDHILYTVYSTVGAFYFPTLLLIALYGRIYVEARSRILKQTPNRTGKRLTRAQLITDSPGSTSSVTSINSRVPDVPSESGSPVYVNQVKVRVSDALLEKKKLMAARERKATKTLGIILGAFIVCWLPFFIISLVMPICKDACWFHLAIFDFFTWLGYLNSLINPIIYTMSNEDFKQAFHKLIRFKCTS

[6] = target: T11, α1A(h) (antagonist radioligand) (Homo sapiens, UniProt P35348); assay: Eurofins Safety Screen 44; assay type: binding; details: read-out: % Inhibition of Control Values
T11 construct: purchased ActivX Biosciences (KiNativ)

[7] = test system: Ca2+ channel (L, dihydropyridine site) (antagonist radioligand); assay: Eurofins Safety Screen 44; assay type: binding; details: 10 µM
[8] = target: T12, 5-HT2A(h) (agonist radioligand) (Homo sapiens, UniProt P28223); assay: Eurofins Safety Screen 44; assay type: binding; details: read-out: % Inhibition of Control Values
T12 construct: purchased ActivX Biosciences (KiNativ)

[9] = test system: AR (h) (agonist radioligand); assay: Eurofins Safety Screen 44; assay type: binding, human; details: 10 µM

| SMILES | KiNativ Kinase Panel Data (NDR1, NDR2) | KiNativ Kinase Panel Data (EphB2) | KiNativ Kinase Panel Data (Wnk1, Wnk2) | KiNativ Kinase Panel Data (ULK1) | KiNativ Kinase Panel Data (MAP2K7) | in vitro hERG inhibition (10 μM) (hERG ion channel) | inhibition of the hERG ion channel (hERG ion channel) | KiNativ Kinase Panel Data (MAP3K2, MAP3K3) | KiNativ Kinase Panel Data (MST1) | KiNativ Kinase Panel Data (MASTL; Lys1, LYAVKVVK) | KiNativ Kinase Panel Data (JAK1 domain1) | tumor volume [1] | tolerability (body weight) [1] | KiNativ Kinase Panel Data (MER, TYRO3) | further results |
| --- | --- | --- | --- | --- | --- | --- | --- | --- | --- | --- | --- | --- | --- | --- | --- |
| CO[C@H]1C[C@@H]2CC[C@@H](C)[C@@](O)(O2)C(=O)C(=O)N2CCCC[C@H]2C(=O)O[C@H]([C@H](C)C[C@@H]2CC[C@@H](OC(=O)NCCOCCOCCOCCOCCOCCOCCOCCOCCC(=O)NCCS(=O)(=O)c3ccc(C(=O)N4CCOc5ccc(-c6ccc(N)nc6)cc5C4)c(C)c3F)[C@H](OC)C2)C[C@@H](O)[C@H](C)/C=C(\C)[C@@H](O)[C@@H](OC)C(=O)[C@H](C)C[C@H](C)/C=C/C=C/C=C/1C [compound 40] | -18.5 | 1.3 | -3.7 | -15.4 | -14.8 | 6% | low | -18.2 | 18.2 | -10.0 | -1.7 | reduction in tumor volume | acceptable tolerability profile | 7.1 | KiNativ Kinase Panel Data (TAO1, TAO3; DIKAGNILLTEPGQVK): -29.7; KiNativ Kinase Panel Data (CDK11, CDK8; DLKPANILVMGEGPER): -19.1; KiNativ Kinase Panel Data (AKT2, AKT3; GTFGKVILVR): -101.1; KiNativ Kinase Panel Data (PKCa, PKCg; NLIPMDPNGLSDPYVKLK): 31.7 |
| CO[C@H]1C[C@@H]2CC[C@@H](C)[C@@](O)(O2)C(=O)C(=O)N2CCCC[C@H]2C(=O)O[C@H]([C@H](C)C[C@@H]2CC[C@@H](OC(=O)NCCOCCOCCOCCOCCOCCOCCOCCOCCC(=O)N3CCc4cc(Cn5nc(-c6ccc7oc(N)nc7c6)c6c(N)ncnc65)ccc4C3)[C@H](OC)C2)C[C@@H](O)[C@H](C)/C=C(\C)[C@@H](O)[C@@H](OC)C(=O)[C@H](C)C[C@H](C)/C=C/C=C/C=C/1C [compound 38] | 25.0 | 26.5 | 13.6 | -11.7 | 20.9 | 16% | low | -12.6 | 10.7 | 17.4 | 0.8 | reduction in tumor volume | acceptable tolerability profile | -0.7 | inhibition at 10 µM [2]: 11.6%; inhibition at 10 µM [3]: -14.5%; inhibition at 10 µM [4]: -14.3%; inhibition at 10 µM [5]: 13.1%; inhibition at 10 µM [6]: 0.6%; KiNativ Kinase Panel Data (TAO1, TAO3; […]): -1.7; % Inhibition of Control Values [7]: -45.0%; KiNativ Kinase Panel Data (CDK11, CDK8; […]): -39.0; KiNativ Kinase Panel Data (AKT2, AKT3; […]): -13.5; KiNativ Kinase Panel Data (MASTL; ATP Loop, GAFGKVYLGQK): 4.3; inhibition at 10 µM [8]: -28.9%; KiNativ Kinase Panel Data (PKCa, PKCg; […]): -20.9; % Inhibition of Control Values [9]: -14.9% |
